Experiment: Lipid-absorption suppressive activity: plasma triglyceride after oral salad oil tolerance
Format: in vivo, male ddy line mice
Protocol: Orbital blood collection from male ddy line mice of six weeks old (six animals per group) was carried out, and then 10 mL/kg of water or 0.1 g/kg of aqueous actein solution was orally administrated to each of them. After 30 minutes, 10 mL/kg of salad oil was orally administrated, orbital blood collection was performed after 180 minutes again, and blood plasma was separated to measure the triglyceride level.
Orbital blood collection from male ddy line mice of six weeks old (six animals per group) was carried out, and then 10 mL/kg of water or 0.2 g/kg or 1.0 g/kg of aqueous solution of Black cohosh extract (Example 1) was orally administrated. After 30 minutes, 10 mL/kg of salad oil was orally administrated, orbital blood collection was performed after 180 minutes again, and blood plasma was separated to measure the triglyceride level.

For `CC(=O)O[C@@H]1C[C@@]23C[C@@]24CC[C@H](O[C@@H]2OC[C@@H](O)[C@H](O)[C@H]2O)C(C)(C)[C@@H]4CC[C@H]3[C@]2(C)C[C@@H]3O[C@]4(C[C@@H](C)[C@@H]3[C@@]12C)O[C@H](O)[C@@]1(C)O[C@@H]41` [actein], the “Triglyceride level in blood plasma, before salad oil administration” value (0.1 g/kg actein oral group, baseline blood collected before dosing, mean ± SD, six animals) was 110.4 ± 22.2 mg/dL, the “Triglyceride level in blood plasma, after 180 minutes” value (0.1 g/kg actein oral, 30 min before 10 mL/kg salad oil, 180 min after oil, mean ± SD) was 248.6 ± 27.8 mg/dL and the “Triglyceride level in blood plasma after 180 minutes of salad oil tolerance (in words)” value (0.1 g/kg actein oral, vs water group) was “significantly suppressed”.
